Consider 32 compounds from ChEMBL document CHEMBL5360542, “Current development of β-carboline derived potential antimalarial scaffolds” (Eur J Med Chem, 2023).

The structures appear in SMILES notation. pIC50: −log10 of the molar value. Some results are limits rather than exact numbers.

Format in all cases: functional, organism-based
The test system of experiment [1] is Plasmodium falciparum. Nature of the experiment: Antiplasmodial activity against multi-resistant Plasmodium falciparum W2 infected in erythrocytes assessed as inhibition of parasite growth incubated for 48 hrs by flow cytometry. The conditions noted are these: W2, Erythrocyte.
In experiment [2] the test system is Plasmodium falciparum. Nature of the experiment: Antimalarial activity against chloroquine-resistant Plasmodium falciparum FcB1 assessed as inhibition of parasite growth.
The subject of experiment [3] is Plasmodium falciparum. Nature of the experiment: Antimalarial activity against Plasmodium falciparum 3D7 infected in human A positive erythrocytes assessed as reduction in parasite growth incubated for 24 hrs by [3H]hypoxanthine based scintillation counting analysis. The conditions noted are these: 3D7, Erythrocyte.
Experiment [4] concerns Plasmodium falciparum. Nature of the experiment: Antimalarial activity against chloroquine-resistant Plasmodium falciparum K1 infected in human A positive erythrocytes assessed as reduction in parasite growth incubated for 24 hrs by [3H]hypoxanthine based scintillation counting analysis. The settings on record: K1, Erythrocyte.
Experiment [5] relates to Plasmodium falciparum. Nature of the experiment: Antiplasmodial activity against chloroquine-sensitive erythrocyte stage Plasmodium falciparum 3D7 assessed as inhibition of parasite growth incubated for 3 days by ELISA. The conditions noted are these: 3D7, Erythrocyte, 72 h.
Experiment [6] has as its system Plasmodium falciparum. Nature of the experiment: Antiplasmodial activity against chloroquine-resistant erythrocyte stage Plasmodium falciparum Dd2 assessed as inhibition of parasite growth incubated for 3 days by ELISA. The conditions noted are these: 72 h. On the technique in general: An ELISA detects its analyte on a solid surface through an enzyme-linked reagent.

For experiment [7], the system named is Plasmodium falciparum. Nature of the experiment: Antimalarial activity against Plasmodium falciparum 3D7 infected in erythrocytes assessed as inhibition of parasite growth incubated for 48 hrs by SYBR-Green I fluorescence-based assay. The settings on record: 3D7, Erythrocyte.
In experiment [8] the test system is Plasmodium falciparum. Nature of the experiment: Antimalarial activity against Plasmodium falciparum INDO infected in erythrocytes assessed as inhibition of parasite growth incubated for 48 hrs by SYBR-Green I fluorescence-based assay. The settings on record: Erythrocyte.
Experiment [9] concerns Plasmodium falciparum. Nature of the experiment: Antimalarial activity against chloroquine-sensitive Plasmodium falciparum D10 transfected in human type A-positive RBC cells assessed reduction in parasite growth by measuring LDH activity incubated for 72 hrs by spectrophotometric analysis. The settings on record: Plasmodium falciparum, D10, Erythrocyte, 72 h.
The test system of experiment [10] is Plasmodium falciparum. Nature of the experiment: Antimalarial activity against chloroquine-resistant Plasmodium falciparum W2 transfected in human type A-positive RBC cells assessed reduction in parasite growth by measuring LDH activity incubated for 72 hrs by spectrophotometric analysis. The conditions noted are these: Plasmodium falciparum, W2, Erythrocyte, 72 h.

The subject of experiment [11] is Plasmodium falciparum. Nature of the experiment: Antimalarial activity against chloroquine-sensitive Plasmodium falciparum 3D7 assessed as reduction in parasite growth.
The test system of experiment [12] is Plasmodium falciparum. Nature of the experiment: Antimalarial activity against chloroquine-resistant Plasmodium falciparum K1 assessed as reduction in parasite growth.

Consider `COc1ccc(C2NCCc3c2[nH]c2ccccc32)cc1` (stereo not drawn), for which the pIC50 in the experiment on Plasmodium falciparum [1] was 6.15. For `COC(=O)c1cc2c([nH]c3ccccc32)c(C(=O)c2c[nH]c3ccccc23)n1`, the negative-log IC50 (pIC50) in the experiment on Plasmodium falciparum [2] is 4.63. For `Clc1ccc(C2NCCc3c2[nH]c2ccccc32)cc1` (stereo not drawn), the pIC50 with Plasmodium falciparum [1] is 5.32. Turning to `CCN(CC)CCCNc1nccc2c1[nH]c1ccc(Cl)cc12`, in the experiment with Plasmodium falciparum [3], the pIC50 was 6.82.

With `CCN(CC)CCCNc1nccc2c1[nH]c1ccc(F)cc12`, the pIC50 with Plasmodium falciparum [3] is 6.22; with Plasmodium falciparum [4], 6.52. Take `Brc1ccc(C2NCCc3c2[nH]c2ccccc32)cc1` (stereo not drawn): the pIC50 in the experiment on Plasmodium falciparum [1] is 5.16. Take `Clc1ccc2[nH]c3c(N4CCC(N5CCCC5)CC4)nccc3c2c1`: the pIC50 with Plasmodium falciparum [3] is 6.03; in the experiment on Plasmodium falciparum [4], 5.99.

For `Clc1ccc2[nH]c3c(N4CCC(N5CCCCC5)CC4)nccc3c2c1`, the figures for the pIC50 in the experiment on Plasmodium falciparum [3] and in the experiment on Plasmodium falciparum [4] were 4.99 and 5.58, respectively. Consider `CN(C)c1ccc(C2NCCc3c2[nH]c2ccccc32)cc1` (stereo not drawn), for which the pIC50 with Plasmodium falciparum [1] is 5.41. As for `O=[N+]([O-])c1ccc(C2NCCc3c2[nH]c2ccccc32)cc1` (stereo not drawn), in the experiment with Plasmodium falciparum [1], the pIC50 is 5.77. As for `CCN(CC)C1CCN(c2nccc3c2[nH]c2ccc(Cl)cc23)CC1`, the pIC50 in the experiment with Plasmodium falciparum [3] is 5.80; in the experiment on Plasmodium falciparum [4] it was 5.93. Regarding `Fc1ccc(C2NCCc3c2[nH]c2ccccc32)cc1` (stereo not drawn), the pIC50 in the experiment on Plasmodium falciparum [1] is 5.96. `COc1ccc(/C=C/C(=O)NCCn2c3cc(OC)ccc3c3ccnc(C)c32)cc1`: the pIC50 was 6.59 in the experiment with Plasmodium falciparum [5] and 6.31 in the experiment with Plasmodium falciparum [6]. Regarding `COc1ccc2[nH]cc(C(=O)c3nccc4c3[nH]c3ccc(OC)cc34)c2c1`, the pIC50 in the experiment with Plasmodium falciparum [2] is 6.00. Turning to `CCOC(=O)c1cc2c([nH]c3ccccc32)c(-c2ccc(/N=C(/Nc3ccccc3)NC3CC3)cc2)n1`, the negative logarithm of the IC50 (pIC50) in the experiment on Plasmodium falciparum [7] was 6.00; with Plasmodium falciparum [8], 6.22. For `CC(C)(C)CCNC(=O)C1Cc2c([nH]c3ccccc23)C(c2ccc(Cl)cc2)N1` (stereo not drawn), the pIC50 in the experiment with Plasmodium falciparum [9] is 4.98; with Plasmodium falciparum [10], 5.11.

`CCOC(=O)c1cc2c([nH]c3ccccc32)c(-c2ccc(N)cc2)n1`: the pIC50 in the experiment on Plasmodium falciparum [7] was 4.42; in the experiment with Plasmodium falciparum [8], 4.41.

Regarding `CCOC(=O)c1cc2c([nH]c3ccccc32)c(-c2ccc(NC(=S)Nc3ccccc3)cc2)n1`, the negative-log IC50 (pIC50) is 5.19 in the experiment on Plasmodium falciparum [7] and 6.19 in the experiment on Plasmodium falciparum [8].

For `C=C(C)CC1OC(C)=Cn2c3ccccc3c3cc(C(=O)OC)nc1c32` (stereo not drawn), the pIC50 with Plasmodium falciparum [11] is less than 5.30. On to `C=CCC1OC(C)=Cn2c3ccccc3c3cc(C(=O)OC)nc1c32` (stereo not drawn), for which the pIC50 in the experiment on Plasmodium falciparum [11] and in the experiment on Plasmodium falciparum [12] was less than 5.30 each time. `CCN(CC)CCCC(C)Nc1nccc2c1[nH]c1ccc(F)cc12` (stereo not drawn): the negative-log IC50 (pIC50) is 6.43 with Plasmodium falciparum [3] and 5.92 in the experiment on Plasmodium falciparum [4]. Regarding `COC(=O)c1cc2c3cc(Br)ccc3n3c2c(n1)COC(C)=C3`, the pIC50 in the experiment on Plasmodium falciparum [11] was less than 5.30. `C=C(CC1OC(C)=Cn2c3ccccc3c3cc(C(=O)OC)nc1c32)C(=O)OC` (stereo not drawn): the pIC50 was 6.24 with Plasmodium falciparum [11] and 6.14 with Plasmodium falciparum [12]. Consider `Cc1nccc2c1[nH]c1cc(OCCNC(=O)/C=C/c3cccc(Br)c3)ccc12`, for which the pIC50 is 6.43 in the experiment on Plasmodium falciparum [5] and 6.32 with Plasmodium falciparum [6]. The matching figures for `COc1ccc2c3ccnc(C)c3n(CCNC(=O)/C=C/c3ccc(F)cc3)c2c1`: 7.05 and 6.48. `COC(=O)c1cc2c3ccccc3n3c2c(n1)C(C1C=CCCC1)OC(C)=C3` (stereo not drawn): the pIC50 in the experiment on Plasmodium falciparum [11] is 5.79; in the experiment with Plasmodium falciparum [12], less than 5.30. Take `COC(=O)c1cc2c3ccccc3n3c2c(n1)C(CC=C(C)C)OC(C)=C3` (stereo not drawn): the pIC50 in the experiment on Plasmodium falciparum [11] and in the experiment with Plasmodium falciparum [12] was less than 5.30 in each case.

Turning to `COc1ccc2c3ccnc(C)c3n(CCNC(=O)/C=C/c3cccc(F)c3)c2c1`, the pIC50 in the experiment with Plasmodium falciparum [5] is 7.15; in the experiment on Plasmodium falciparum [6], 6.11. The matching figures for `COc1ccc2c3ccnc(C)c3n(CCNC(=O)/C=C/c3cccc(Br)c3)c2c1`: 7.15 and 6.39. For the compound `COC(=O)c1cc2c3cc(Cl)ccc3n3c2c(n1)C(C/C=C(\C)CCC=C(C)C)OC(C)=C3` (stereo not drawn), the pIC50 with Plasmodium falciparum [11] is 5.81; with Plasmodium falciparum [12], less than 5.30. `COc1ccc(/C=C/C(=O)NCCOc2ccc3c(c2)[nH]c2c(C)nccc23)cc1`: the negative logarithm of the IC50 (pIC50) in the experiment on Plasmodium falciparum [5] is 6.68; in the experiment on Plasmodium falciparum [6], 5.96. The matching figures for `Cc1nccc2c1[nH]c1cc(OCCNC(=O)/C=C/c3cccc(F)c3)ccc12`: 5.56 and 5.30.

For orientation: pIC50 means −log10 of the IC50, conventionally taken in molar units.
